The values below come from US7842698B2, “Pyridine methylene azolidinones and use thereof phosphoinositide inhibitors” (Merck Serono S.A., priority 2004, dated 2010).

For data set [1], the system named is Class I PI3-kinases. Conditions: Fruman et al., 1998, cited from earlier work.
Data set [2] deals with Human recombinant GST-PI3Kγ (Homo sapiens, UniProt P48736). The experiment in a line: High throughput PI3K lipid kinase assay (scintillation proximity assay, neomycin-coated SPA beads). The conditions noted are these: [33P]γ-ATP, 180 minutes at room temperature. In kind it is biochemical. The text has this:
a) High Throughput PI3K Lipid Kinase Assay (Binding Assay):
The efficacy of compounds of the invention in inhibiting the PI3K induced-lipid phosphorylation may be tested in the following binding assay.
The assay combines the scintillation proximity assay technology (SPA, Amersham) with the capacity of neomycin (a polycationic antibiotic) to bind phospholipids with high affinity and specificity. The Scintillation Proximity Assay is based on the properties of weakly emitting isotopes (such as ^3H, ^125I, ^33P). Coating SPA beads with neomycin allows the detection of phosphorylated lipid substrates after incubation with recombinant PI3K and radioactive ATP in the same well, by capturing the radioactive phospholipids to the SPA beads through their specific binding to neomycin.
To a 384 wells MTP containing 5 μl of the test compound of Formula (I) (solubilized in 6% DMSO; to yield a concentration of 100, 30, 10, 3, 1, 0.3, 0.1, 0.03, 0.01, 0.001 μM of the test compound), the following assay components are added. 1) 5 μl (58 ng) of Human recombinant GST-PI3Kγ (in Hepes 40 mM, pH 7.4, DTT 1 mM and ethyleneglycol 5%) 2) 10 μl of lipid micelles and 3) 10 μl of Kinase buffer ([^33P]γ-ATP 45 μM/60 n Ci, MgCl2 30 mM, DTT 1 mM, β-Glycerophosphate 1 mM, Na3VO4 100 μM, Na Cholate 0.3%, in Hepes 40 mM, pH 7.4). After incubation at room temperature for 180 minutes, with gentle agitation, the reaction is stopped by addition of 60 μl of a solution containing 100 μg of neomycin-coated PVT SPA beads in PBS containing ATP 10 mM and EDTA 5 mM. The assay is further incubated at room temperature for 60 minutes with gentle agitation to allow binding of phospholipids to neomycin-SPA beads. After precipitation of the neomycin-coated PVT SPA beads for 5 minutes at 1500× g, radioactive PtdIns(3)P is quantified by scintillation counting in a Wallac MicroBeta™ plate counter.
The values indicated in Table I below refer to the IC50 (nM) with respect to PI3Kγ, i.e. the amount necessary to achieve 50% inhibition of said target. Said values show a considerable inhibitory potency of thiazole compounds with regard to PI3Kγ.
For orientation: Scintillation proximity formats need no separation of bound from free tracer.

Data set [3] relates to Akt/PKB phosphorylation in Raw 264-7 macrophages. The experiment in a line: Cell based ELISA to monitor PI3K inhibition: Akt/PKB phosphorylation in macrophages after stimulation with Complement 5a. The conditions noted are these: Mus musculus, RAW264.7, 50 nM Complement 5a for 5 minutes, inhibitors pretreated 20 minutes, phospho Serine 473 Akt, read-out: Cell Assay (P-Akt, Elisa) IC50. Here is the method:
b) Cell Based ELISA to Monitor PI3K Inhibition:
The efficacy of compounds of the invention in inhibiting the PI3K induced Akt/PKB phosphorylation may be tested in the following cell based assay.
Measurement of Akt/PKB phosphorylation in macrophages after stimulation with Complement 5a: Raw 264: Raw 264-7 macrophages (cultured in DMEM-F12 medium containing 10% Fetal Calf serum and antibiotics) are plated at 20′000 cells/well in a 96 MTP 24 h before cell stimulation. Previous to the stimulation with 50 nM of Complement 5a during 5 minutes, Cells are serum starved for 2 h, and pretreated with inhibitors for 20 minutes. After stimulation cells are fixed in 4% formaldehyde for 20 minutes and washed 3 times in PBS containing 1% Triton X-100 (PBS/Triton). Endogenous peroxidase is blocked by a 20 minutes incubation in 0.6% H2O2 and 0.1% Sodium Azide in PBS/Triton and washed 3 times in PBS/Triton. Cells are then blocked by 60 minutes incubation with 10% fetal calf serum in PBS/Triton. Next, phosphorylated Akt/PKB is detected by an overnight incubation at 4° C. with first antibody (anti phospho Serine 473 Akt IHC, Cell Signaling) diluted 800-fold in PBS/Triton, containing 5% bovine serum albumin (BSA). […] The reaction is stopped by addition of 50 μl of 1 M SO4H2 and absorbance is read at 450 nm. […]

Data set [4] has as its system phospholipases. The conditions noted are these: cited from earlier work.

Structures can show the parent of a compound that is named as a salt. Where two headings read alike, the source gives them in different places. Where only a bound is given, the exact number is not on record here.

Chain of Human recombinant GST-PI3Kγ (P48736 whole entry): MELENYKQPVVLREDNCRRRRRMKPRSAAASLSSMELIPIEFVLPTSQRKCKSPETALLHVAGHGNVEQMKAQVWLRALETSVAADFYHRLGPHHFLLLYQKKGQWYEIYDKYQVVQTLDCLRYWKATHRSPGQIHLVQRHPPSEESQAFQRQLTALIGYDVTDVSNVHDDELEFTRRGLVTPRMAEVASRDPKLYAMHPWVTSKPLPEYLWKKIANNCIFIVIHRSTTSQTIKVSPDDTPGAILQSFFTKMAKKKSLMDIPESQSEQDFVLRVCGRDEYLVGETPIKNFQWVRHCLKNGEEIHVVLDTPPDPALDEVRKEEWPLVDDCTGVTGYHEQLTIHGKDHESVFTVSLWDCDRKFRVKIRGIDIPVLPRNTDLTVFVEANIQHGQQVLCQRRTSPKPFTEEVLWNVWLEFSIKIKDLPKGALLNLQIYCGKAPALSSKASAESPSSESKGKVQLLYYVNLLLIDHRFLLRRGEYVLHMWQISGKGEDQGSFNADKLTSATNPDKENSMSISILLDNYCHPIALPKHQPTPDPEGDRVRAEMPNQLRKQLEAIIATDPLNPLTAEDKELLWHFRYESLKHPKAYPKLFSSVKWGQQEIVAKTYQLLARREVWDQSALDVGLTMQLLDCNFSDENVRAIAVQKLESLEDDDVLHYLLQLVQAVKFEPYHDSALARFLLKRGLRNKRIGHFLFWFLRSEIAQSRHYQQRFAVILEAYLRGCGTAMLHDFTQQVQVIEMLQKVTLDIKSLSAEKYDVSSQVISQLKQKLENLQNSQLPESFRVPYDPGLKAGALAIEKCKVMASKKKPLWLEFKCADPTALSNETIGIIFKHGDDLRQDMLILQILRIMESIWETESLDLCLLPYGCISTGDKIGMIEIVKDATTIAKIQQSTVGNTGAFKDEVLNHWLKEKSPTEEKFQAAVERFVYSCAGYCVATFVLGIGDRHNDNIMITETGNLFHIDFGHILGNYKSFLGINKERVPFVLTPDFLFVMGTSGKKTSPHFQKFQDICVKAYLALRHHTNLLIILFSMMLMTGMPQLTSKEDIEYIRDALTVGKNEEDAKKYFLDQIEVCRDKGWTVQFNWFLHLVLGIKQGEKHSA

`COC[C@H]1OC(=O)c2coc3c2[C@@]1(C)C1=C(C3=O)[C@@H]2CCC(=O)[C@@]2(C)C[C@H]1OC(C)=O` [wortmannin]: in data set [1] (wortmannin, read-out: IC50 against each of the various Class I PI3-kinases), the IC50 (commonly the concentration that inhibits the measured activity by half) is 1 to 10 nM.

Take `COc1cc(OC)cc(-n2cnc3ccc(/C=C4\SC(=O)NC4=O)nc32)c1` [Example 8, (5Z)-5-{[3-(3,5-dimethoxyphenyl)-3H-imidazo[4,5-b]pyridin-5-yl]methylene}-1,3-thiazolidine-2,4-dione]: the IC50 in data set [2] amounted to 10 nM.

Take `O=C1NC(=O)/C(=C/c2ccc3nccnc3n2)S1` [Example 4, 5-Pyrido[2,3-b]pyrazin-6-ylmethylene-thiazolidine-2,4-dione]: the IC50 in data set [2] is 20 nM.

For `O=C1NC(=O)/C(=C/c2ccc3ncnc(N4CCCCC4)c3n2)S1` (as salt: potassium) [Example 1, (5Z)-5-{[4-(1-piperidinyl)pyrido[3,2-d]pyrimidin-6-yl]methylene}-1,3-thiazolidine-2,4-dione potassium salt], the melting point (as a rule, the temperature of the solid-liquid transition) was found to be 319 °C.

For the molecule `O=C1NC(=O)/C(=C/c2ccc3occc3n2)S1` [Example 5, 5-Furo[3,2-b]pyridin-5-ylmethylene-thiazolidine-2,4-dione], the IC50 in data set [2] came to 35 nM.

Turning to `CN(C)CCCC(=O)N1CCc2cc(-n3cnc4ccc(/C=C5\SC(=O)NC5=O)nc43)ccc21` [Example 12, (5Z)-5-[(3-{1-[4-(dimethylamino)butanoyl]-2,3-dihydro-1H-indol-5-yl}-3H-imidazo[4,5-b]pyridin-5-yl)methylene]-1,3-thiazolidine-2,4-dione], the IC50 in data set [2] amounted to 7 nM.

Turning to `O=C1NC(=O)/C(=C/c2ccc3ncnc(N4CCCCC4)c3n2)S1` [Example 1, (5Z)-5-{[4-(1-piperidinyl)pyrido[3,2-d]pyrimidin-6-yl]methylene}-1,3-thiazolidine-2,4-dione potassium salt], the 50% inhibitory concentration (IC50) in data set [3] is below 10 nM; in data set [2] it was 4 nM.

With `O=C1NC(=O)/C(=C/c2ccc3ncnc(N4CCC(C(F)(F)F)CC4)c3n2)S1` [Example 3, (5Z)-5-({4-[4-(trifluoromethyl)-1-piperidinyl]pyrido[3,2-d]pyrimidin-6-yl}methylene)-1,3-thiazolidine-2,4-dione potassium salt], the IC50 in data set [3] was below 10 nM; in data set [2] it was 6 nM.

`O=C1NC(=S)SC1=Cc1ccc2ncnc(N3CCC(F)CC3)c2n1` [Example 6, 5-[4-(4-Fluoro-piperidin-1-yl)-pyrido[3,2-d]pyrimidin-6-ylmethylene]-2-thioxo-thiazolidin-4-one]: the half-inhibitory concentration (IC50) in data set [2] came out at 2 nM.

For `O=c1cc(N2CCOCC2)oc2c(-c3ccccc3)cccc12` [LY294002], in data set [4], the “inhibitory activity on phospholipases” value is reported as “some inhibitory activity”. In addition, the IC50 in data set [1] (LY294002, read-out: IC50 against each of these PI3-kinases (Class I)) was 15000 to 20000 nM.
